18 compounds from ChEMBL document CHEMBL1201862, “PubChem BioAssay data set” (2004) can be followed below.

Test systems include SK-OV-3; NCI-H522; SK-MEL-5; SK-MEL-2; RPMI-8226; U-251; SW-620; SF-268; SNB-75; OVCAR-3; ACHN; HL-60.
Holding throughout (test): NCI-60 cell line screen, 48 h

The structures appear in SMILES notation.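 Following 48 hours of exposure in 96-well plates, responses at five concentrations were used to interpolate endpoints linearly. The concentration for 50% growth inhibition is given as GI50.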 Active and inactive are the calls of the source. Rule as the data show it: active = GI50 up to about 1.1 µM and inactive = higher.

Take `Cc1cc2c(c(C(=O)O)c1C)-c1cccc(F)c1C2=O`: the GI50 with SK-OV-3, in the assay with NCI-H522, in the assay with SK-MEL-5, in the assay on SK-MEL-2, with RPMI-8226 and with U-251 was > 100 µM (inactive) throughout. The GI50 in the assay with SW-620, in the assay with SF-268, in the assay with SNB-75, with OVCAR-3 and in the assay with ACHN was > 100 µM (inactive) in each case.

`N#Cc1cccc(NC(=O)c2ccc(C(=O)O)c(C(=O)c3ccc(C(=O)O)c(C(=O)Nc4cccc(C#N)c4)c3)c2)c1`: the GI50 in the assay with SK-OV-3, in the assay with NCI-H522, with SK-MEL-5, in the assay on SK-MEL-2, with RPMI-8226 and in the assay with U-251 was > 100 µM (inactive) in each case. The GI50 in the assay on SW-620, with HL-60, in the assay on SF-268, in the assay with SNB-75 and in the assay on OVCAR-3 was > 100 µM (inactive) throughout.

Turning to `CC(=O)NS(=O)(=O)c1ccc(NC(=O)COC(=O)c2cccc3c(=O)c4ccccc4[nH]c23)cc1`, the GI50 in the assay on SK-OV-3, in the assay with NCI-H522, in the assay with SK-MEL-5, with SK-MEL-2, in the assay with RPMI-8226 and with U-251 was > 100 µM (inactive) in each case. In addition, the GI50 with SW-620 was > 100 µM (inactive); in the assay on HL-60, > 100 µM (inactive); with SNB-75, > 100 µM (inactive); with OVCAR-3, 92.5 µM (inactive); in the assay with ACHN, > 100 µM (inactive).

Turning to `COC(=O)C(=O)C(C(=O)C(=O)Nc1ccc(F)cc1)c1nc2ccc([N+](=O)[O-])cc2nc1O` (centres undefined), the GI50 in the assay on SK-OV-3, in the assay on NCI-H522, with SK-MEL-5, in the assay with RPMI-8226, in the assay on U-251 and in the assay on SW-620 was > 100 µM (inactive) in each case. Besides, the GI50 in the assay with HL-60, with SF-268, with SNB-75 and in the assay with OVCAR-3 was > 100 µM (inactive) in each case.

In the case of `COC(=O)C(=O)C(C(=O)C(=O)Nc1ccc(OC)cc1[N+](=O)[O-])c1nc2ccc([N+](=O)[O-])cc2nc1O` (centres undefined), the GI50 with SK-OV-3, with NCI-H522, with RPMI-8226, with U-251, with SW-620 and in the assay with HL-60 was > 100 µM (inactive) throughout. In addition, the GI50 is > 100 µM (inactive) in the assay on SF-268, 26.5 µM (inactive) in the assay on SNB-75, > 100 µM (inactive) in the assay on OVCAR-3 and > 100 µM (inactive) with ACHN.

For `COC(=O)C1=C(C(=O)OC)C23C=CC=CC24C(C(=O)OC)=C(C(=O)OC)C4C1C3` (centres undefined), the GI50 is 32.7 µM (inactive) in the assay on NCI-H522; > 100 µM (inactive) in the assay with SK-MEL-5; > 100 µM (inactive) in the assay with SK-MEL-2; 51.2 µM (inactive) in the assay on RPMI-8226; > 100 µM (inactive) in the assay on U-251; > 100 µM (inactive) with SW-620. Also, the GI50 in the assay on HL-60 was 41.7 µM (inactive); in the assay on SF-268, > 100 µM (inactive); in the assay with SNB-75 it was 0.743 µM (active); in the assay on OVCAR-3 it was > 100 µM (inactive); in the assay with ACHN, > 100 µM (inactive).

With `COc1cc(/C=N/N=C(\N)NO)cc(Cl)c1O`, the GI50 in the assay with SK-OV-3 was 55.8 µM (inactive); with NCI-H522, > 100 µM (inactive); with SK-MEL-5 it was 33.4 µM (inactive); in the assay with SK-MEL-2, 81.1 µM (inactive); in the assay on RPMI-8226 it was > 100 µM (inactive); in the assay on U-251, 48.9 µM (inactive). Besides, the GI50 in the assay with SW-620 was 99.3 µM (inactive); in the assay with SF-268 it was 46.7 µM (inactive); in the assay on OVCAR-3, 70.3 µM (inactive); in the assay with ACHN, 34.4 µM (inactive).

For `C=C1CC(CC)(CCN2C(=O)c3ccccc3C2=O)OC1=O` (centres undefined), the GI50 in the assay with NCI-H522 was 3.48 µM (inactive); in the assay on SK-MEL-5, 12.9 µM (inactive); in the assay on SK-MEL-2 it was 12.9 µM (inactive); with RPMI-8226, 22.7 µM (inactive); with U-251, > 10 µM (inactive); in the assay with SW-620, 7.55 µM (inactive). Besides, the GI50 in the assay with HL-60 is 9.2 µM (inactive); with SF-268, 1.08 µM (active); in the assay with SNB-75, 43.8 µM (inactive); with ACHN it was 14.9 µM (inactive).

On to `COc1ccccc1NC(=O)CC(=O)NNCC(=O)Nc1nc(-c2ccccc2)cs1`, for which the GI50 in the assay with SK-OV-3, in the assay on NCI-H522, with SK-MEL-5, in the assay with RPMI-8226, with U-251 and in the assay on SW-620 was > 100 µM (inactive) in each case. The GI50 in the assay with HL-60, in the assay with SF-268, with SNB-75 and with OVCAR-3 was > 100 µM (inactive) throughout.

Consider `O=C(CC1(O)C(=O)Nc2ccc([N+](=O)[O-])cc21)c1ccncc1` (centres undefined), for which the GI50 in the assay with SK-OV-3 is > 100 µM (inactive); with NCI-H522 it was 29.8 µM (inactive); with SK-MEL-2, 85.1 µM (inactive); with RPMI-8226 it was 25.2 µM (inactive); with U-251, 20.1 µM (inactive); in the assay on SW-620, 20.5 µM (inactive). Further, the GI50 is 19.3 µM (inactive) in the assay on HL-60; 36.7 µM (inactive) with SF-268; 26.1 µM (inactive) with SNB-75; 25.2 µM (inactive) with OVCAR-3; 43.3 µM (inactive) with ACHN.

On to `Cc1cc(O)nc(NNC(C#N)c2ccc(N(C)C)cc2)n1` (centres undefined), for which the GI50 in the assay on SK-OV-3, in the assay with NCI-H522, in the assay on SK-MEL-5, in the assay with SK-MEL-2, in the assay with RPMI-8226 and in the assay on U-251 was > 100 µM (inactive) throughout. The GI50 in the assay with SW-620, in the assay with HL-60, with SF-268, in the assay on SNB-75, with OVCAR-3 and with ACHN was > 100 µM (inactive) in each case.

As for `Cc1nc2ccccc2c(=O)n1/N=C(\N=N\c1ccc(Cl)cc1)c1cccc(-c2ccco2)c1`, the GI50 in the assay on SK-OV-3 was 30.3 µM (inactive); with NCI-H522, 17.7 µM (inactive); with SK-MEL-5 it was 18.9 µM (inactive); in the assay on RPMI-8226, 19.1 µM (inactive); with U-251 it was 27.5 µM (inactive); with SW-620, 42.5 µM (inactive). In addition, the results for the GI50 in the assay with HL-60, in the assay on SF-268 and in the assay on ACHN were 25.1 µM (inactive), 19.7 µM (inactive) and 30.5 µM (inactive), respectively.

For the compound `CCCCNc1nc(C#N)c(N)s1`, the GI50 with SK-OV-3, in the assay with NCI-H522, in the assay on SK-MEL-2, in the assay with RPMI-8226, in the assay on U-251 and with SW-620 was > 100 µM (inactive) each time. The GI50 in the assay on HL-60, with SF-268, in the assay with SNB-75, with OVCAR-3 and in the assay on ACHN was > 100 µM (inactive) each time.

Consider `Cc1cc([N+](=O)[O-])ccc1NC(=O)C(=O)C(C(=O)c1ccccc1-c1ccccc1)C1OC(=O)c2ccccc21` (centres undefined), for which the GI50 in the assay on SK-OV-3 was 22.7 µM (inactive); in the assay on NCI-H522 it was 12.9 µM (inactive); with SK-MEL-5, 15 µM (inactive); with SK-MEL-2 it was 12.6 µM (inactive); with RPMI-8226, 24 µM (inactive); in the assay with U-251, 12.5 µM (inactive). Moreover, the GI50 is 18 µM (inactive) with SW-620, 21.6 µM (inactive) in the assay with SF-268 and 31.3 µM (inactive) with ACHN.

Take `CC(c1ccccc1)C(O)S(=O)(=O)O` (centres undefined): the GI50 with SK-OV-3, with NCI-H522, in the assay on SK-MEL-2, with RPMI-8226, with U-251 and in the assay with SW-620 was > 100 µM (inactive) each time. Further, the GI50 with SF-268 was > 100 µM (inactive); with SNB-75, 43.7 µM (inactive); in the assay with OVCAR-3 it was > 100 µM (inactive); with ACHN, > 100 µM (inactive).

With `NC1C[C@H](n2cc(/C=C/Br)c(=O)[nH]c2=O)C[C@@H]1CO` (some centres undefined), the GI50 with SK-OV-3, with NCI-H522, in the assay with RPMI-8226, with U-251, in the assay with HL-60 and in the assay with SF-268 was > 100 µM (inactive) in each case. The GI50 in the assay on SNB-75, with OVCAR-3 and with ACHN was > 100 µM (inactive) in each case.

For the compound `CCN(CC)/[N+]([O-])=N/O`, the GI50 in the assay on SK-OV-3, in the assay on NCI-H522, in the assay on SK-MEL-5, in the assay with SK-MEL-2, in the assay on SW-620 and with HL-60 was > 100 µM (inactive) throughout. Further, the GI50 in the assay with SF-268, with OVCAR-3 and in the assay with ACHN was > 100 µM (inactive) in each case.

In the case of `O=C1c2ccc(O)c(O)c2C(=O)c2c(O)ccc(O)c21` [QUINALIZARIN], the GI50 in the assay on SK-OV-3 was 29.7 µM (inactive); with NCI-H522, 1.45 µM (inactive); in the assay on SK-MEL-2, 25.7 µM (inactive); with RPMI-8226 it was 28.2 µM (inactive); in the assay on U-251, 34.2 µM (inactive); with SW-620, 28.2 µM (inactive). In addition, the GI50 is 26.6 µM (inactive) in the assay with SF-268, > 10 µM (inactive) in the assay with SNB-75, 20.3 µM (inactive) in the assay with OVCAR-3 and 23 µM (inactive) with ACHN.
